From patent US20070004680A1, “Compositions and methods for modulating gated ion channels” (PainCeptor Pharma Corporation, priority 2004, published 2007)

Target: T1, ASIC1a (Homo sapiens, UniProt P78348)
T1 construct: host or cells: HEK293
T1 sequence (P78348 1-528): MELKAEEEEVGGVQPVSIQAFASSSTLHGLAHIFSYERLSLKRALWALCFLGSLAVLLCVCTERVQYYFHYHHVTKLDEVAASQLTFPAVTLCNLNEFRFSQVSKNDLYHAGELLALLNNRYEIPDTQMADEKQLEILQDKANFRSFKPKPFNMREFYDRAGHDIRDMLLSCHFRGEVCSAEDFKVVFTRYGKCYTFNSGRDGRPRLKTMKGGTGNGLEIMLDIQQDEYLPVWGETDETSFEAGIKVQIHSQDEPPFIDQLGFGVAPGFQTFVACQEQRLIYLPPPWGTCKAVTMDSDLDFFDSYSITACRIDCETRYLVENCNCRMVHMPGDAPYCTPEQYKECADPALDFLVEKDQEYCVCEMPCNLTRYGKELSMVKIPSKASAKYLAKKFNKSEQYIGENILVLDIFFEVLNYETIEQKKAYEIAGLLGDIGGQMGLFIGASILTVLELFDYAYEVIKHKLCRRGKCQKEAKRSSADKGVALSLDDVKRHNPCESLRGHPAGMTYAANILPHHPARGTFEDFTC
Experiment: FLIPR calcium assay (MES-induced calcium response), ASIC1a expressing HEK293 cells
Assay type: cell-based
Conditions: HEK cells
Protocol: ASIC1a expressing HEK293 cells are grown in culture medium (DMEM with 10% FBS), in polystyrene culture flasks ([…]) at 37° C. in a humidified atmosphere of 5% CO2. Confluency of cells should be 80-90% on day of plating. Cells are rinsed with 10 ml of PBS and cells are re-suspended by addition of culture medium and trituration with a 25 ml pipette.
The cells are seeded at a density of approximately 1×10^6 cells/ml (100 μl/well) in black-walled, clear bottom, 96-well plates pre-treated with 10 mg/l poly-D-lysin (75 μl/well for ≧30 min). Plated cells were allowed to proliferate for 24 h before loading with dye.
Fluo-4/AM (1 mg, Molecular Probes) is added 912 μl DMSO. The Fluo-4/AM stock solution (1 mM) is diluted with culture medium to a final concentration of 2 μM.
The culture medium is aspirated from the wells, and 50 μl of the Fluo-4/AM loading solution is added to each well. The cells are incubated at 37° C. for 30 min.
After the loading period, the loading solution is aspirated and the cells are washed twice with 100 μl modified FLIPR medium (145 mM NaCl, 5 mM KCl, 5 mM CaCl2, 1 mM MgCl2, 10 mM HEPES, pH 7.4) to remove extracellular dye. Following the second wash, 100 μl modified FLIPR medium is added to each well and the fluorescence is measured in FLIPR.
Temperature: Room temperature (20-22° C.)
First addition: 50 μl test solution at a rate of 30 μl/sec and a starting height of […]
Second addition: 50 μl MES solution (20 mM, 5 mM final concentration) at a rate of 35 μl/sec and a starting height of 150 μl.
Reading intervals: pre-incubation—10 sec×7 and 3 sec×3 antagonist phase—3 sec×17 and 10 sec×12
Addition plates (compound test plate and MES plate) are placed on the right and left positions in the FLIPR tray, respectively. Cell plates are placed in the middle position and the ASIC1a program is effectuated. FLIPR will then take the appropriate measurements in accordance with the interval settings above. Fluorescence obtained after stimulation is corrected for the mean basal fluorescence (in modified FLIPR medium). […]

C=CC1CN2CCC1CC2[C@@H](OC(=O)CCC1CCCC1)c1ccnc2ccccc12 (some centres unmarked) [Compound A]
inhibition at 1 µM (HEK293, at 1 μM, FLIPR): 30 to 45%
IC50 (MES-induced calcium response, peak values): 1000 to 4000 nM
